The values below come from US8349864B2, “Pyrano [3,2-C] pyridones and related heterocyclic compounds as pharmaceutical agents for treating disorders responsive to apoptosis, antiproliferation or vascular disruption, and the use thereof” (New Mexico Technical Research Foundation, priority 2009, dated 2013).

For one assay, the system named is HeLa. Kind of assay: MTT cell viability assay, HeLa cells. The format is cell-based. The following applies: Homo sapiens, 48 h treatment, ± SD, two experiments, 8 replicates.
The test system of another assay is MCF-7. Kind of assay: MTT cell viability assay, MCF-7 cells. Type of assay: cell-based. Conditions: Homo sapiens, MCF7, 48 h treatment, ± SD, two experiments, 8 replicates.
Another assay has as its system Jurkat cells. Kind of assay: Flow cytometric annexin-V/propidium iodide apoptosis assay. Conditions: 5 μM, 36 h. The format is cell-based, human. Here is the method:
Since many clinically used anticancer agents induce apoptosis in cancer cells, we tested the pyranopyridone analogues for their ability to induce apoptosis in Jurkat (model for human T-cell leukemia) cells using the flow cytometric annexin-V/propidium iodide assay (FIG. 1).
FIG. 1 illustrates induction of apoptosis in Jurkat cells treated for 36 h with DMSO control, colchicine (5 μM) and selected pyridone library analogues (5 μM) in the flow cytometric annexin-V/propidium iodide assay. Error bars represent data

The test system of another assay is tubulin. Nature of the assay: In vitro tubulin polymerization (fluorescence). The format is biochemical. Conditions: 25 μM; relative to 0.05% DMSO control. The text has this: To obtain further support for the proposed antitubulin mechanism of action for our heterocycles, we assessed the effect of pyranoquinolones on in vitro tubulin polymerization. In this assay microtubule formation is monitored by the increase in fluorescence intensity of the reaction mixture.
FIG. 4 illustrates the effect of our compounds on in vitro tubulin polymerization.

Regarding `Cn1c(=O)c2c(c3ccccc31)OC(N)=C(C#N)C2c1cncc(Br)c1` (centres unmarked) [Compound 3, 2-Amino-4-(5-bromo-3-pyridinyl)-6-methyl-5-oxo-5,6-dihydro-4H-pyrano[3,2-c]quinoline-3-carbonitrile], the GI50 with HeLa came out at 13 ± 3 nM; in the assay with MCF-7, 15 ± 8 nM.
In the case of `COc1cc(C2C(C#N)=C(N)Oc3c2c(=O)n(C)c2ccccc32)cc(Br)c1OC(C)=O` (centres unmarked) [Compound 4, 4-(2-Amino-3-cyano-6-methyl-5-oxo-5,6-dihydro-4H-pyrano[3,2-c]quinolin-4-yl)-2-bromo-6-methoxyphenyl acetate], the figures for the GI50 in the assay on HeLa and with MCF-7 were 180 ± 20 nM and 25 ± 60 nM, respectively.
In the assay on HeLa, `Cc1cc2c(c(=O)n1C)C(c1ccc(N(C)C)c(Br)c1)C(C#N)=C(N)O2` (centres unmarked) [Compound 8, 2-Amino-4-[3-bromo-4-(dimethylamino)phenyl]-6,7-dimethyl-5-oxo-5,6-dihydro-4H-pyrano[3,2-c]pyridine-3-carbonitrile] gave a GI50 of 330 ± 60 nM.
In the assay on HeLa, `COc1cc(C2C(C#N)=C(N)Oc3cc(C)n(C)c(=O)c32)cc(Br)c1OC` (centres unmarked) [Compound 9, 2-Amino-4-(3-bromo-4,5-dimethoxyphenyl)-6,7-dimethyl-5-oxo-5,6-dihydro-4H-pyrano[3,2-c]pyridine-3-carbonitrile] came in with a 50% growth inhibitory concentration (GI50) of 580 ± 140 nM.
`CCOc1c(Br)cc(C2C(C#N)=C(N)Oc3cc(C)n(C)c(=O)c32)cc1OC` (centres unmarked) [Compound 10, 2-Amino-4-(3-bromo-4-ethoxy-5-methoxyphenyl)-6,7-dimethyl-5-oxo-5,6-dihydro-4H-pyrano[3,2-c]pyridine-3-carbonitrile] registered a GI50 in the assay on HeLa of 1100 ± 800 nM.
The same measure, in the same setting: the same measure for `COc1cc(C2C(C#N)=C(N)Oc3cc(C)n(C)c(=O)c32)cc(Br)c1O` (centres unmarked) [Compound 11, 2-Amino-4-(3-bromo-4-hydroxy-5-methoxyphenyl)-6,7-dimethyl-5-oxo-5,6-dihydro-4H-pyrano[3,2-c]pyridine-3-carbonitrile]: 2700 ± 1100 nM.
With `COc1cc(C2C(C#N)=C(N)Oc3cc(C)n(C)c(=O)c32)cc(Br)c1OC(C)=O` (centres unmarked) [Compound 12, 4-(2-Amino-3-cyano-6,7-dimethyl-5-oxo-5,6-dihydro-4H-pyrano[3,2-c]pyridin-4-yl)-2-bromo-6-methoxyphenyl acetate], the GI50 in the assay with HeLa came to 3500 ± 1300 nM.
`Cc1cc2c(c(=O)n1C)C(c1ccc(F)c(Br)c1)C(C#N)=C(N)O2` (centres unmarked) [Compound 13, 2-Amino-4-(3-bromo-4-fluorophenyl)-6,7-dimethyl-5-oxo-5,6-dihydro-4H-pyrano[3,2-c]pyridine-3-carbonitrile] yielded a GI50 in the assay with HeLa of 6400 ± 1100 nM.
On the same count and under the same terms, the same measure for `Cc1cc2c(c(=O)n1C)C(c1cccc(Br)c1)C(C#N)=C(N)O2` (centres unmarked) [Compound 14, 2-Amino-4-(3-bromophenyl)-6,7-dimethyl-5-oxo-5,6-dihydro-4H-pyrano[3,2-c]pyridine-3-carbonitrile]: 6500 ± 1300 nM.
Turning to `Cc1cc2c(c(=O)n1C)C(c1ccc(Cl)c(Cl)c1)C(C#N)=C(N)O2` (centres unmarked) [Compound 15, 2-Amino-4-(3,4-dichlorophenyl)-6,7-dimethyl-5-oxo-5,6-dihydro-4H-pyrano[3,2-c]pyridine-3-carbonitrile], in the assay on Jurkat cells, the “induction of apoptosis in Jurkat cells” value is “do not induce apoptosis”. This molecule also registered a concentration for 50% growth inhibition (GI50) in the assay with HeLa of 18300 ± 2900 nM.
In the same order, the values of `Cc1cc2c(c(=O)n1C)C(c1ccc(C(C)C)cc1)C(C#N)=C(N)O2` (centres unmarked) [Compound 17, 2-Amino-4-(4-isopropylphenyl)-6,7-dimethyl-5-oxo-5,6-dihydro-4H-pyrano[3,2-c]pyridine-3-carbonitrile] are “do not induce apoptosis” and more than 100000 nM.
In the same order, the values of `COc1ccc(CCn2c(C)cc3c(c2=O)C(c2cc(OC)c(OC)c(OC)c2)C(C#N)=C(N)O3)cc1OC` (centres unmarked) [Compound 20, 2-Amino-6-(3,4-dimethoxyphenethyl)-7-methyl-5-oxo-4-(3,4,5-trimethoxyphenyl)-5,6-dihydro-4H-pyrano[3,2-c]pyridine-3-carbonitrile] are “do not induce apoptosis” and 22700 ± 6400 nM.
For `COc1cc(C2C(C#N)=C(N)Oc3c2c(=O)n(C)c2ccccc32)cc(OC)c1OC` (centres unmarked) [Compound 22, 2-Amino-6-methyl-5-oxo-4-(3,4,5-trimethoxyphenyl)-5,6-dihydro-4H-pyrano[3,2-c]quinoline-3-carbonitrile], the 50% growth inhibitory concentration (GI50) with HeLa worked out at 240 ± 20 nM; with MCF-7, 1000 ± 300 nM.
Regarding `COc1cc(C2C(C#N)=C(N)Oc3c2c(=O)n(C)c2ccccc32)cc([N+](=O)[O-])c1O` (centres unmarked) [Compound 25, 2-Amino-4-(4-hydroxy-3-methoxy-5-nitrophenyl)-6-methyl-5-oxo-5,6-dihydro-4H-pyrano[3,2-c]quinoline-3-carbonitrile], the GI50 with HeLa is 630 ± 20 nM; in the assay with MCF-7, 710 ± 120 nM.
In the case of `Cn1c(=O)c2c(c3ccccc31)OC(N)=C(C#N)C2c1cccc(Br)c1` (centres unmarked) [Compound 37, 2-Amino-4-(3-bromophenyl)-6-methyl-5-oxo-5,6-dihydro-4H-pyrano[3,2-c]quinoline-3-carbonitrile], the 50% growth inhibitory concentration (GI50) turned out to be 740 ± 30 nM in the assay on HeLa and 3 ± 1 nM in the assay on MCF-7.
For the molecule `Cn1c(=O)c2c(c3ccccc31)OC(N)=C(C#N)C2c1ccc(F)c(Br)c1` (centres unmarked) [Compound 38, 2-Amino-4-(3-bromo-4-fluorophenyl)-6-methyl-5-oxo-5,6-dihydro-4H-pyrano[3,2-c]quinoline-3-carbonitrile], the GI50 in the assay with HeLa is 270 ± 30 nM; in the assay on MCF-7, 810 ± 80 nM.
Take `Cn1c(=O)c2c(c3ccccc31)OC(N)=C(C#N)C2c1cc(Br)c(O)c(Br)c1` (centres unmarked) [Compound 39, 2-Amino-4-(3,5-dibromo-4-hydroxyphenyl)-6-methyl-5-oxo-5,6-dihydro-4H-pyrano[3,2-c]quinoline-3-carbonitrile]: the 50% growth inhibitory concentration (GI50) in the assay with HeLa stood at 270 ± 20 nM; in the assay with MCF-7 it was 430 ± 10 nM.
In the same order, the values of `Cn1c(=O)c2c(c3ccccc31)OC(N)=C(C#N)C2c1cc(Br)cc(Br)c1` (centres unmarked) [Compound 42, 2-Amino-4-(3,5-dibromophenyl)-6-methyl-5-oxo-5,6-dihydro-4H-pyrano[3,2-c]quinoline-3-carbonitrile] are 77 ± 6 nM and 75 ± 7 nM.
The matching figures for `COc1ccc(C2C(C#N)=C(N)Oc3c2c(=O)n(C)c2ccccc32)cc1Br` (centres unmarked) [Compound 43, 2-Amino-4-(3-bromo-4-methoxyphenyl)-6-methyl-5-oxo-5,6-dihydro-4H-pyrano[3,2-c]quinoline-3-carbonitrile]: 410 ± 40 nM and 500 ± 100 nM.
As for `COc1cc([C@@H]2c3cc4c(cc3[C@H](O)[C@H]3COC(=O)[C@H]23)OCO4)cc(OC)c1OC` [podophyllotoxin, reference compound], the “effect on in vitro tubulin polymerization” value in the assay with tubulin was “completely suppress tubulin polymerization”.
